Test results reported in PubChem BioAssay AID330 (DTP/NCI, 2004).
Values joined by “and” are separate entries in the source; they are usually repeats but may differ in a detail not shown here. Equal values may be shown once. Inconclusive results and toxic doses are left out.

System: P388 leukemia ip, CD2F1 mice, survival T/C
Experiment: NCI In Vivo Anticancer Drug Screen. Data for tumor model P388 Leukemia (intraperitoneal) in CD2F1 (CDF1) mice
Settings: endpoint: median survival time, higher = longer survival
How it was run: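 Mice carrying the transplanted tumor received test compound or vehicle. Survival was recorded in each group, and the value is the treated-group measurement divided by that of the vehicle-treated control group.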

[1] = dose: 50.0 mg/kg/injection, schedule: Q01DX005 (ip), vehicle: Klucel (hydroxypropylcellulose) (HPC)
[2] = dose: 100.0 mg/kg/injection, schedule: Q01DX005 (ip), vehicle: Klucel (hydroxypropylcellulose) (HPC)
[3] = dose: 400.0 mg/kg/injection, schedule: Q01DX005 (ip), vehicle: Klucel (hydroxypropylcellulose) (HPC)
[4] = dose: 25.0 mg/kg/injection, schedule: Q01DX005 (ip), vehicle: Klucel (hydroxypropylcellulose) (HPC)
[5] = dose: 200.0 mg/kg/injection, schedule: Q01DX005 (ip), vehicle: Klucel (hydroxypropylcellulose) (HPC)
[6] = dose: 25.0 mg/kg/injection, schedule: Q04DX003 (ip), vehicle: saline with Tween-80
[7] = dose: 50.0 mg/kg/injection, schedule: Q01DX009 (ip), vehicle: saline

`CCO/C([O-])=C(\C=N\S(=O)(=O)c1ccc(C)cc1)[n+]1ccccc1` was tested, and the T/C (dose: 50.0 mg/kg/injection, schedule: Q01DX009 (ip), vehicle: Klucel (hydroxypropylcellulose) (HPC)) was 104 % of control, the T/C (dose: 100.0 mg/kg/injection, schedule: Q01DX009 (ip), vehicle: Klucel (hydroxypropylcellulose) (HPC)) was 105 % of control and the T/C (dose: 200.0 mg/kg/injection, schedule: Q01DX009 (ip), vehicle: Klucel (hydroxypropylcellulose) (HPC)) was 108 % of control.
With `Oc1c(Cl)cc(Cl)cc1C=NCCSc1ccc(Cl)cc1` the T/C [1] was 99 % of control and 108 % of control and 111 % of control, the T/C (dose: 100.0 mg/kg/injection, schedule: Q01DX005 (ip), vehicle: DMSO) was 115 % of control and the T/C [2] was 105 % of control and 115 % of control and 93 % of control. For the same compound, the T/C (dose: 200.0 mg/kg/injection, schedule: Q01DX005 (ip), vehicle: DMSO) was 117 % of control, the T/C (dose: 400.0 mg/kg/injection, schedule: Q01DX005 (ip), vehicle: DMSO) was 118 % of control and the T/C [3] was 101 % of control and 120 % of control. The T/C (dose: 600.0 mg/kg/injection, schedule: Q01DX005 (ip), vehicle: DMSO) was 108 % of control.
For `O=C(O)C(Nc1ncnc2c1ncn2C1OC(CO)C(O)C1O)C(F)(F)C(=O)O` (stereo not drawn), the T/C (dose: 100.0 mg/kg/injection, schedule: Q04DX003 (ip), vehicle: saline) was 97 % of control, the T/C (dose: 200.0 mg/kg/injection, schedule: Q04DX003 (ip), vehicle: saline) was 100 % of control and the T/C (dose: 400.0 mg/kg/injection, schedule: Q04DX003 (ip), vehicle: saline) was 99 % of control.
With `CCN(CC)Cc1cc(N=Nc2cc(OC)c(N=Nc3ccc([N+](=O)[O-])cc3)cc2OC)c2cccnc2c1O` the T/C [4] was 107 % of control, the T/C [1] was 106 % of control and 107 % of control and 114 % of control and the T/C [2] was 112 % of control and 117 % of control and 123 % of control. For the same compound, the T/C [5] was 112 % of control and 117 % of control and the T/C [3] was 116 % of control.
With `O=C(O)c1cccc([N+](=O)[O-])c1C(=O)O` the T/C [6] was 103 % of control, the T/C (dose: 50.0 mg/kg/injection, schedule: Q04DX003 (ip), vehicle: saline with Tween-80) was 108 % of control and the T/C (dose: 100.0 mg/kg/injection, schedule: Q04DX003 (ip), vehicle: saline with Tween-80) was 103 % of control. For the same compound, the T/C (dose: 200.0 mg/kg/injection, schedule: Q04DX003 (ip), vehicle: saline with Tween-80) was 94 % of control.
`CC1(C)N=C(N)N=C(N)N1c1ccc(OCCCCNC(=O)c2ccc(S(=O)(=O)F)cc2)c(Cl)c1` was tested, and the T/C (dose: 25.0 mg/kg/injection, schedule: Q01DX009 (ip), vehicle: saline with Tween-80) was 150 % of control, the T/C (dose: 25.0 mg/kg/injection, schedule: Q01DX009 (ip), vehicle: saline) was 161 % of control and the T/C [7] was 159 % of control.
`CC(=N)C1C(=O)C=C(C)OC1=O` (stereo not drawn) was tested, and the T/C [7] was 86 % of control, the T/C (dose: 100.0 mg/kg/injection, schedule: Q01DX009 (ip), vehicle: saline) was 88 % of control and the T/C (dose: 200.0 mg/kg/injection, schedule: Q01DX009 (ip), vehicle: saline) was 88 % of control.
With `O=C(O)C(O)C(O)C(=O)O.[Co+3].[NH-]CC[NH-].[NH-]CC[NH-].[NH-]CC[NH-]` (stereo not drawn) the T/C (dose: 50.0 mg/kg/injection, schedule: Q01DX005 (ip), vehicle: saline with Tween-80) was 104 % of control and the T/C (dose: 100.0 mg/kg/injection, schedule: Q01DX005 (ip), vehicle: saline with Tween-80) was 100 % of control.
In the case of `CCCCOC(=O)c1ccccc1C(=O)O.CCCCOC(=O)c1ccccc1C(=O)O.[Cu+2]`, the T/C (dose: 6.25 mg/kg/injection, schedule: Q04DX003 (ip), vehicle: saline with Tween-80) is reported as 102 % of control, the T/C (dose: 12.5 mg/kg/injection, schedule: Q04DX003 (ip), vehicle: saline with Tween-80) is reported as 96 % of control and the T/C [6] is reported as 102 % of control.
`COC1C(CO)OC(n2cnc3c(=S)nc(N)[nH]c32)C1O` (stereo not drawn) was tested, and the T/C (dose: 100.0 mg/kg/injection, schedule: Q01DX009 (ip), vehicle: saline with Tween-80) was 122 % of control and the T/C (dose: 264.0 mg/kg/injection, schedule: Q04DX003 (ip), vehicle: saline with Tween-80) was 109 % of control.
With `CCCCC1=C([Si](C)(C)C)C(=O)c2ccccc2C1=O` the T/C [4] was 109 % of control, the T/C [1] was 110 % of control and 111 % of control and 113 % of control and the T/C [2] was 115 % of control and 86 % of control. For the same compound, the T/C [5] was 110 % of control and 118 % of control.
With `Cc1ncc(CNC(=O)N(CCCl)N=O)c(N)n1` the T/C (dose: 10.0 mg/kg/injection, schedule: Q01DX001 (ip), vehicle: saline) was 191 % of control, the T/C (dose: 20.0 mg/kg/injection, schedule: Q01DX001 (ip), vehicle: saline) was 260 % of control and 336 % of control and the T/C (dose: 30.0 mg/kg/injection, schedule: Q01DX001 (ip), vehicle: saline) was 517 % of control. For the same compound, the T/C (dose: 40.0 mg/kg/injection, schedule: Q01DX001 (ip), vehicle: saline) was 120 % of control and 260 % of control.
